# Measurements from ChEMBL document CHEMBL1136087, “Synthesis of radiolabeled biphenylsulfonamide matrix metalloproteinase inhibitors as new potential PET cancer imaging agents” (Bioorg Med Chem Lett, 2003).
# Biological target: Collagenase 3 (Homo sapiens) (UniProt P45452)
# Assay: Inhibition of human matrix metalloprotease-13 at 20 nM
row,Inhibition effect,SMILES
1,0.897,CC(C)[C@H](NS(=O)(=O)c1ccc(-c2ccc([N+](=O)[O-])cc2)cc1)C(=O)O
2,0.938,COc1ccc(-c2ccc(S(=O)(=O)N[C@H](C(=O)O)C(C)C)cc2)cc1
3,0.939,COC(=O)[C@@H](NS(=O)(=O)c1ccc(-c2cccc(OC)c2)cc1)C(C)C
4,0.919,COC(=O)[C@@H](NS(=O)(=O)c1ccc(-c2cccc(F)c2)cc1)C(C)C
5,0.922,COC(=O)[C@@H](NS(=O)(=O)c1ccc(-c2ccccc2F)cc1)C(C)C
6,0.883,COC(=O)[C@@H](NS(=O)(=O)c1ccc(-c2ccc([N+](=O)[O-])cc2)cc1)C(C)C
7,0.91,COC(=O)[C@@H](NS(=O)(=O)c1ccc(-c2ccc(F)cc2)cc1)C(C)C
8,0.942,COC(=O)[C@@H](NS(=O)(=O)c1ccc(-c2ccccc2OC)cc1)C(C)C
9,0.935,COC(=O)[C@@H](NS(=O)(=O)c1ccc(-c2ccc(OC)cc2)cc1)C(C)C

row,SMILES,Inhibition effect
1,CC(C)[C@H](NS(=O)(=O)c1ccc(-c2ccc(F)cc2)cc1)C(=O)O,0.918
